What was measured:
[1] = system: Plasmodium yoelii nigeriensis; experiment: Antimalarial activity against multidrug-resistant Plasmodium yoelii nigeriensis infected in Swiss mouse assessed as inhibition of parasitemia at 24 mg/kg, po for 4 days measured on day 4 relative to control; format: functional; details: 96 h, time 4 day
[2] = system: Plasmodium yoelii nigeriensis; experiment: Antimalarial activity against multidrug-resistant Plasmodium yoelii nigeriensis infected in Swiss mouse assessed as inhibition of parasitemia at 12 mg/kg, IM for 4 days measured on day 4 relative to control; format: functional; details: 96 h, time 4 day
[3] = Toxicity in Swiss mouse infected with multidrug-resistant Plasmodium yoelii nigeriensis assessed as animal survival at 12 mg/kg, IM for 4 days measured on day 28; format: organism-based; details: in vivo, time 4 day; for survival at 96 h: Swiss, read-out: Activity
[4] = system: Plasmodium yoelii nigeriensis; experiment: Antimalarial activity against multidrug-resistant Plasmodium yoelii nigeriensis infected in Swiss mouse assessed as inhibition of parasitemia at 48 mg/kg, po for 4 days measured on day 4 relative to control; format: functional; details: 96 h, time 4 day
[5] = system: Plasmodium yoelii nigeriensis; experiment: Antimalarial activity against multidrug-resistant Plasmodium yoelii nigeriensis infected in Swiss mouse assessed as inhibition of parasitemia at 48 mg/kg, IM for 4 days measured on day 4 relative to control; format: functional; details: 96 h, time 4 day
[6] = system: Plasmodium yoelii nigeriensis; experiment: Antimalarial activity against multidrug-resistant Plasmodium yoelii nigeriensis infected in Swiss mouse assessed as inhibition of parasitemia at 24 mg/kg, IM for 4 days measured on day 4 relative to control; format: functional; details: 96 h, time 4 day
[7] = Toxicity in Swiss mouse infected with multidrug-resistant Plasmodium yoelii nigeriensis assessed as animal dead at 48 mg/kg, po for 4 days measured on day 28; format: organism-based; details: in vivo, 96 h, time 4 day
[8] = Toxicity in Swiss mouse infected with multidrug-resistant Plasmodium yoelii nigeriensis assessed as animal survival at 48 mg/kg, IM for 4 days measured on day 28; format: organism-based; details: in vivo, 96 h, time 4 day
[9] = system: Plasmodium yoelii nigeriensis; experiment: Antimalarial activity against multidrug-resistant Plasmodium yoelii nigeriensis infected in Swiss mouse assessed as inhibition of parasitemia at 12 mg/kg, po for 4 days measured on day 4 relative to control; format: functional; details: 96 h, time 4 day
[10] = system: Plasmodium yoelii nigeriensis; experiment: Antimalarial activity against multidrug-resistant Plasmodium yoelii nigeriensis infected in Swiss mouse assessed as inhibition of parasitemia at 6 mg/kg, po for 4 days measured on day 4 relative to control; format: functional; details: 96 h, time 4 day
[11] = system: Plasmodium yoelii nigeriensis; experiment: Antimalarial activity against multidrug-resistant Plasmodium yoelii nigeriensis infected in Swiss mouse assessed as inhibition of parasitemia at 3 mg/kg, IM for 4 days measured on day 4 relative to control; format: functional; details: 96 h, time 4 day
[12] = Toxicity in Swiss mouse infected with multidrug-resistant Plasmodium yoelii nigeriensis assessed as animal survival at 6 mg/kg, IM for 4 days measured on day 28; format: organism-based; details: in vivo, time 4 day
[13] = Toxicity in Swiss mouse infected with multidrug-resistant Plasmodium yoelii nigeriensis assessed as animal survival at 24 mg/kg, po for 4 days measured on day 28; format: organism-based; details: in vivo, time 4 day; for Activity: po, 24 mg/kg, 96 h
[14] = Toxicity in Swiss mouse infected with multidrug-resistant Plasmodium yoelii nigeriensis assessed as animal survival at 12 mg/kg, po for 4 days measured on day 28; format: organism-based; details: in vivo, 96 h, time 4 day
[15] = Toxicity in Swiss mouse infected with multidrug-resistant Plasmodium yoelii nigeriensis assessed as animal dead at 6 mg/kg, po for 4 days measured on day 28; format: organism-based; details: in vivo, 96 h, time 4 day
[16] = Toxicity in Swiss mouse infected with multidrug-resistant Plasmodium yoelii nigeriensis assessed as animal dead at 3 mg/kg, IM for 4 days measured on day 28; format: organism-based; details: in vivo, 96 h, time 4 day
[17] = Toxicity in Swiss mouse infected with multidrug-resistant Plasmodium yoelii nigeriensis assessed as animal dead at 12 mg/kg, po for 4 days measured on day 28; format: organism-based; details: in vivo, 96 h, time 4 day
[18] = Toxicity in Swiss mouse infected with multidrug-resistant Plasmodium yoelii nigeriensis assessed as animal dead at 12 mg/kg, IM for 4 days measured on day 28; format: organism-based; details: in vivo, 96 h, time 4 day
[19] = system: Plasmodium yoelii nigeriensis; experiment: Antimalarial activity against multidrug-resistant Plasmodium yoelii nigeriensis infected in Swiss mouse assessed as inhibition of parasitemia at 6 mg/kg, IM for 4 days measured on day 4 relative to control; format: functional; details: 96 h, time 4 day
[20] = Toxicity in Swiss mouse infected with multidrug-resistant Plasmodium yoelii nigeriensis assessed as animal dead at 24 mg/kg, po for 4 days measured on day 28; format: organism-based; details: in vivo, 96 h, time 4 day
[21] = Toxicity in Swiss mouse infected with multidrug-resistant Plasmodium yoelii nigeriensis assessed as animal survival at 24 mg/kg, IM for 4 days measured on day 28; format: organism-based; details: in vivo, time 4 day, read-out: Activity

Structure (SMILES) | inhibition in vivo at 24 mg/kg [1] [%] | inhibition in vivo at 12 mg/kg [2] [%] | survival at 96 h [3] [%] | other results
C[C@@H]1CC[C@H]2[C@@H](C)C(=O)N(/N=C/c3ccc(Br)cc3)[C@@H]3O[C@@]4(C)CC[C@@H]1[C@@]23OO4 | 100 | 100 | 60 | 
C[C@@H]1CC[C@H]2[C@@H](C)C(=O)O[C@@H]3O[C@@]4(C)CC[C@@H]1[C@]32OO4 [ARTEMISININ] |  |  |  | inhibition in vivo at 48 mg/kg [4]: 100%; inhibition in vivo at 48 mg/kg [5]: 100%; inhibition in vivo at 24 mg/kg [6]: 100%; Activity [7]: Toxic; Activity [8]: Non-Toxic
C[C@@H]1CC[C@H]2[C@@H](C)C(=O)N(N=C3c4ccccc4-c4ccccc43)[C@@H]3O[C@@]4(C)CC[C@@H]1[C@@]23OO4 | 100 | 100 |  | inhibition in vivo at 12 mg/kg [9]: 100%; inhibition in vivo at 6 mg/kg [10]: 98%; inhibition in vivo at 3 mg/kg [11]: 38%; Activity ([12]; im, 6 mg/kg, 96 h): Non-Toxic; Activity [13]: Non-Toxic; Activity ([3]; im, 12 mg/kg, 96 h): Non-Toxic; Activity [14]: Non-Toxic; Activity [15]: Toxic; Activity [16]: Toxic
COc1ccc(/C=N/N2C(=O)[C@H](C)[C@@H]3CC[C@@H](C)[C@@H]4CC[C@@]5(C)OO[C@]43[C@H]2O5)cc1 | 100 | 100 | 60 | inhibition in vivo at 12 mg/kg [9]: 100%; Activity [13]: Non-Toxic; Activity [17]: Toxic
C[C@@H]1CC[C@H]2[C@@H](C)C(=O)N(/N=C/c3cccc([N+](=O)[O-])c3)[C@@H]3O[C@@]4(C)CC[C@@H]1[C@@]23OO4 | 100 | 100 |  | Activity [18]: Toxic
C[C@@H]1CC[C@H]2[C@@H](C)C(=O)N(/N=C/c3ccccc3O)[C@@H]3O[C@@]4(C)CC[C@@H]1[C@@]23OO4 | 100 | 100 | 40 | 
C[C@@H]1CC[C@H]2[C@@H](C)C(=O)N(N=C3C4CC5CC(C4)CC3C5)[C@@H]3O[C@@]4(C)CC[C@@H]1[C@@]23OO4 | 100 | 100 | 20 | 
C[C@@H]1CC[C@H]2[C@@H](C)C(=O)N(N=C3CCCC3)[C@@H]3O[C@@]4(C)CC[C@@H]1[C@@]23OO4 | 100 | 100 |  | inhibition in vivo at 6 mg/kg [19]: 100%; survival at 96 h ([12]; Swiss, read-out: Activity): 80%; Activity [20]: Toxic; Activity [13]: Non-Toxic
C[C@@H]1CC[C@H]2[C@@H](C)C(=O)N(N=C3CCCCC3)[C@@H]3O[C@@]4(C)CC[C@@H]1[C@@]23OO4 | 100 | 100 | 40 | 
C[C@@H]1CC[C@H]2[C@@H](C)C(=O)N(/N=C/c3cccs3)[C@@H]3O[C@@]4(C)CC[C@@H]1[C@@]23OO4 | 100 | 100 |  | inhibition in vivo at 12 mg/kg [9]: 100%
C[C@@H]1CC[C@H]2[C@@H](C)C(=O)N(N)[C@@H]3O[C@@]4(C)CC[C@@H]1[C@@]23OO4 | 100 | 100 |  | Activity [18]: Toxic
C[C@@H]1CC[C@H]2[C@@H](C)C(=O)N(/N=C/c3ccco3)[C@@H]3O[C@@]4(C)CC[C@@H]1[C@@]23OO4 | 100 | 100 | 80 | survival at 96 h ([13]; Swiss, read-out: Activity): 80%
C[C@@H]1CC[C@H]2[C@@H](C)C(=O)N(/N=C/c3ccc[nH]3)[C@@H]3O[C@@]4(C)CC[C@@H]1[C@@]23OO4 | 100 | 100 |  | survival at 96 h [21]: 40%
CC(C)=NN1C(=O)[C@H](C)[C@@H]2CC[C@@H](C)[C@@H]3CC[C@@]4(C)OO[C@]32[C@H]1O4 | 100 | 100 |  | 
